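Tested at 5 concentrations; 48 h exposure; 96-well plates; endpoints linearly interpolated, else capped at highest concentration. GI50 = concentration required for 50% inhibition of growth. TGI denotes the concentration required for complete inhibition of growth.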
Assays:
Assay in all cases: inhibition of tumour cell growth, NCI panel, 48 h
786-0 renal = system: 786-0 renal
A498 renal = system: A498 renal
A549 NSCLC = system: A549 NSCLC
ACHN renal = system: ACHN renal
BT-549 breast = system: BT-549 breast
CAKI-1 renal = system: CAKI-1 renal
CCRF-CEM leukemia = system: CCRF-CEM leukemia
COLO 205 colon = system: COLO 205 colon
DU-145 prostate = system: DU-145 prostate
EKVX NSCLC = system: EKVX NSCLC
HCC-2998 colon = system: HCC-2998 colon
HCT-116 colon = system: HCT-116 colon
HCT-15 colon = system: HCT-15 colon
HL-60(TB) leukemia = system: HL-60(TB) leukemia
HOP-62 NSCLC = system: HOP-62 NSCLC
HOP-92 NSCLC = system: HOP-92 NSCLC
HS 578T breast = system: HS 578T breast
HT29 colon = system: HT29 colon
IGROV1 ovarian = system: IGROV1 ovarian
K-562 leukemia = system: K-562 leukemia
KM12 colon = system: KM12 colon
LOX IMVI melanoma = system: LOX IMVI melanoma
M14 melanoma = system: M14 melanoma
MALME-3M melanoma = system: MALME-3M melanoma
MCF7 breast = system: MCF7 breast
MDA-MB-231 breast = system: MDA-MB-231 breast
MDA-MB-435 = system: MDA-MB-435
MOLT-4 leukemia = system: MOLT-4 leukemia
NCI-H226 lung = system: NCI-H226 lung
NCI-H23 lung = system: NCI-H23 lung
NCI-H460 lung = system: NCI-H460 lung
NCI-H522 lung = system: NCI-H522 lung
NCI/ADR-RES ovarian = system: NCI/ADR-RES ovarian
OVCAR-3 ovarian = system: OVCAR-3 ovarian
OVCAR-4 ovarian = system: OVCAR-4 ovarian
OVCAR-5 ovarian = system: OVCAR-5 ovarian
OVCAR-8 ovarian = system: OVCAR-8 ovarian
PC-3 prostate = system: PC-3 prostate
RPMI-8226 leukemia = system: RPMI-8226 leukemia
RXF 393 renal = system: RXF 393 renal
SF-268 CNS = system: SF-268 CNS
SF-295 CNS = system: SF-295 CNS
SF-539 CNS = system: SF-539 CNS
SK-MEL-2 melanoma = system: SK-MEL-2 melanoma
SK-MEL-28 melanoma = system: SK-MEL-28 melanoma
SK-MEL-5 melanoma = system: SK-MEL-5 melanoma
SK-OV-3 ovarian = system: SK-OV-3 ovarian
SN12C renal = system: SN12C renal
SNB-19 CNS = system: SNB-19 CNS
SR leukemia = system: SR leukemia
SW-620 colon = system: SW-620 colon
T-47D breast = system: T-47D breast
TK-10 renal = system: TK-10 renal
U251 CNS = system: U251 CNS
UACC-257 melanoma = system: UACC-257 melanoma
UACC-62 melanoma = system: UACC-62 melanoma
UO-31 renal = system: UO-31 renal

## N#C[Se]CCCNS(=O)(=O)C1CC2C=CC1C2 (centres undefined)
786-0 renal
  GI50: 997 nM
  TGI: 2330 nM
A498 renal
  GI50: 652 nM
  TGI: 2090 nM
A549 NSCLC
  GI50: 601 nM
  TGI: 2630 nM
ACHN renal
  GI50: 1480 nM
  TGI: 2850 nM
BT-549 breast
  GI50: 192 nM
  TGI: 388 nM
CAKI-1 renal
  GI50: 416 nM
  TGI: 1590 nM
CCRF-CEM leukemia
  GI50: 484 nM
  TGI: 38200 nM
COLO 205 colon
  GI50: 2300 nM
  TGI: 5830 nM
DU-145 prostate
  GI50: 1060 nM
  TGI: 2580 nM
EKVX NSCLC
  GI50: 491 nM
  TGI: 1840 nM
HCC-2998 colon
  GI50: 1950 nM
  TGI: 4730 nM
HCT-116 colon
  GI50: 276 nM
  TGI: 827 nM
HCT-15 colon
  GI50: 1470 nM
  TGI: 3650 nM
HL-60(TB) leukemia
  GI50: 326 nM
  TGI: 1310 nM
HOP-62 NSCLC
  GI50: 482 nM
  TGI: 1820 nM
HOP-92 NSCLC
  GI50: 1170 nM
  TGI: 2700 nM
HS 578T breast
  GI50: 409 nM
  TGI: 1870 nM
HT29 colon
  GI50: 386 nM
  TGI: 5310 nM
IGROV1 ovarian
  GI50: 383 nM
  TGI: 1650 nM
K-562 leukemia
  GI50: 1780 nM
  TGI: > 41600 nM
KM12 colon
  GI50: 1400 nM
  TGI: 6430 nM
LOX IMVI melanoma
  GI50: 186 nM
  TGI: 376 nM
M14 melanoma
  GI50: 231 nM
  TGI: 655 nM
MALME-3M melanoma
  GI50: 416 nM
  TGI: 1870 nM
MCF7 breast
  GI50: 588 nM
  TGI: 5550 nM
MDA-MB-231 breast
  GI50: 1230 nM
  TGI: 3550 nM
MDA-MB-435
  GI50: 361 nM
  TGI: 1310 nM
MOLT-4 leukemia
  GI50: 409 nM
  TGI: 22600 nM
NCI-H226 lung
  GI50: 267 nM
  TGI: 674 nM
NCI-H23 lung
  GI50: 1160 nM
  TGI: 4630 nM
NCI-H460 lung
  GI50: 316 nM
  TGI: 1270 nM
NCI-H522 lung
  GI50: 1780 nM
  TGI: 4200 nM
NCI/ADR-RES ovarian
  GI50: 570 nM
  TGI: 5120 nM
OVCAR-3 ovarian
  GI50: 1470 nM
  TGI: 3100 nM
OVCAR-4 ovarian
  GI50: 1480 nM
  TGI: 8570 nM
OVCAR-5 ovarian
  GI50: 828 nM
  TGI: 5130 nM
OVCAR-8 ovarian
  GI50: 511 nM
  TGI: 5060 nM
PC-3 prostate
  GI50: 704 nM
  TGI: 3830 nM
RPMI-8226 leukemia
  GI50: 2170 nM
  TGI: 5550 nM
RXF 393 renal
  GI50: 364 nM
  TGI: 1340 nM
SF-268 CNS
  GI50: 301 nM
  TGI: 916 nM
SF-295 CNS
  GI50: 1010 nM
  TGI: 2430 nM
SF-539 CNS
  GI50: 413 nM
  TGI: 1560 nM
SK-MEL-2 melanoma
  GI50: 2000 nM
  TGI: 6150 nM
SK-MEL-28 melanoma
  GI50: 486 nM
  TGI: 2770 nM
SK-MEL-5 melanoma
  GI50: 1410 nM
  TGI: 2950 nM
SK-OV-3 ovarian
  GI50: 2770 nM
  TGI: 5650 nM
SN12C renal
  GI50: 494 nM
  TGI: 1440 nM
SNB-19 CNS
  GI50: 1050 nM
  TGI: 2910 nM
SR leukemia
  GI50: 570 nM
  TGI: > 100000 nM
SW-620 colon
  GI50: 1790 nM
  TGI: 5560 nM
T-47D breast
  GI50: 2550 nM
  TGI: 8280 nM
TK-10 renal
  GI50: 403 nM
  TGI: 2330 nM
U251 CNS
  GI50: 1080 nM
  TGI: 3360 nM
UACC-257 melanoma
  GI50: 648 nM
  TGI: 3090 nM
UACC-62 melanoma
  GI50: 1590 nM
  TGI: 3380 nM
UO-31 renal
  GI50: 338 nM
  TGI: 1430 nM
